Data as given in paper PMC10054477, “Design, Synthesis, and Biological Evaluation of Sulfonamide Methoxypyridine Derivatives as Novel PI3K/mTOR Dual Inhibitors” (Pharmaceuticals, 2023).

What was measured:
[1] = tested on: MCF-7 cells; assay: CCK-8 cell viability assay, MCF-7; type: cell-based; conditions: Homo sapiens, MCF7, 72 h, mean (n = 3)
Experimental: (§1) MCF-7 and HCT-116 cells were purchased from the Meilunbio Biotechnology Co., Ltd. (Dalian, China). Cells were cultured at 37 °C with 5% CO2, using DMEM or RPMI 1640 medium (Meilunbio, Dalian, China) with 10% (v/v) fetal bovine serum (Gibco, San Diego, CA, USA) and 1% (v/v) penicillin and streptomycin (Meilunbio, Dalian, China). CCK-8 assay was used to determine the inhibitory effect in vitro. In short, cells were incubated into 96-well plates at the rate of 5000 cells per well. After 24 h of incubation, 100 μL medium was added, which contained a specific concentration of the test compound. After 72 h, 10 μL CCK-8 regent was added and the plate was incubated at 37 °C, 5% CO2 for 1 h. The optical density of each hole at 450 nm was read by a BioTek TS-800 microplate reader. GraphPad Prism 9.3.1 software was used to calculate the IC50 value.

[2] = biological target: T1, PI3Kα (Homo sapiens, UniProt P42336); assay: ADP-Glo kinase assay, PI3Kα enzyme inhibition; type: biochemical; conditions: at 1 nM
T1 construct: purchased SignalChem P27-122DH
T1 sequence (P42336 whole entry): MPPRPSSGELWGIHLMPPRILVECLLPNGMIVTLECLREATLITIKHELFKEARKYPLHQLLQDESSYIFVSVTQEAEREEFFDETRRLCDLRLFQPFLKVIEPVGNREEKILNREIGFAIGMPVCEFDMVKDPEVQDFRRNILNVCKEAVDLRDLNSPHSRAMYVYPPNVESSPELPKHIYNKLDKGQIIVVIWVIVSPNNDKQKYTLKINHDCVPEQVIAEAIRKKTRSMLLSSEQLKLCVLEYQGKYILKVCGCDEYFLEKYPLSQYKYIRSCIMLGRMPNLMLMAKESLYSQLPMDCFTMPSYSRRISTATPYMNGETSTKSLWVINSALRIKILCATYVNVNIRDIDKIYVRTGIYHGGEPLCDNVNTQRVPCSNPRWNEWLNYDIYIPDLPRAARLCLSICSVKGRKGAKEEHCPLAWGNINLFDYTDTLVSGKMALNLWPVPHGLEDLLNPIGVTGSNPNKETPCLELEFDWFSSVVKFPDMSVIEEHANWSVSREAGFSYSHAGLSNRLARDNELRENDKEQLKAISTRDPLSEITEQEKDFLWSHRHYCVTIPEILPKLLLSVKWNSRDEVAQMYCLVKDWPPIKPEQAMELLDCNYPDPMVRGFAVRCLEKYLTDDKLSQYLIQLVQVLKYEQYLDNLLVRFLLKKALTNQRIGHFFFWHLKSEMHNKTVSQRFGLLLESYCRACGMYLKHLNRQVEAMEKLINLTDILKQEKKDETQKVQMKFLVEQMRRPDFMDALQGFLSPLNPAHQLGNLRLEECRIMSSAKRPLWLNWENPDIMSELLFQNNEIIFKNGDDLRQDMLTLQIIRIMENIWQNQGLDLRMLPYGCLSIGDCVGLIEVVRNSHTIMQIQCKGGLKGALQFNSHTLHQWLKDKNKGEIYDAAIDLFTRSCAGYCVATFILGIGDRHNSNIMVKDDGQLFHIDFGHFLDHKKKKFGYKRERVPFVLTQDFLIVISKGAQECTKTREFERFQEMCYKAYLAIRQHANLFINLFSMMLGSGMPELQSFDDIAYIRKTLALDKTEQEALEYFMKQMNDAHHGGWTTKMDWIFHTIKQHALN
T1 sequence (P27986 whole entry partner): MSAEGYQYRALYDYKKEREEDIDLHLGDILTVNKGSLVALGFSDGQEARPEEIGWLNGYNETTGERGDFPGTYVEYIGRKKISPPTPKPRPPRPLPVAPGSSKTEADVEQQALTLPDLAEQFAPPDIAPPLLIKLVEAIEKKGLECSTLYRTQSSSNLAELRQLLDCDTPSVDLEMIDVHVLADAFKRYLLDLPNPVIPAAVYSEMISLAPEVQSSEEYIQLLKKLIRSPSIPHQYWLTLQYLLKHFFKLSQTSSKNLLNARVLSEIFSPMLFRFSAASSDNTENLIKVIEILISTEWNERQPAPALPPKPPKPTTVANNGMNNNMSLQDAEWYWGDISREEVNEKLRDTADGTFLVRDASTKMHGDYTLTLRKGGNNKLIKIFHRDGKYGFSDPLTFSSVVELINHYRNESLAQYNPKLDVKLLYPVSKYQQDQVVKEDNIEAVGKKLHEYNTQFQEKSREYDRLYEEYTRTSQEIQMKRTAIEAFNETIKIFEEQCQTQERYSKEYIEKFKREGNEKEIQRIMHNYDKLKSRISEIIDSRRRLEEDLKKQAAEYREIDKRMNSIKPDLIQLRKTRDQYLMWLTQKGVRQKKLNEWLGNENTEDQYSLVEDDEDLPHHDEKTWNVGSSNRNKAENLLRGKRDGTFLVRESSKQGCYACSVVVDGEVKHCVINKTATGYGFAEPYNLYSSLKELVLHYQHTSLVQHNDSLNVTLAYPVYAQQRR
Experimental: The enzymatic inhibitory assays of all target compounds against PI3Kα were performed with the ADP-Glo assay (Promega, Madison, WI, USA, catalog No. V9102/3). Briefly, compounds were continuously diluted to a certain concentration. […] The mixture was added to a 96-well plate and incubated in a dark place at ambient temperature for 40 min. Then, the kinase reaction was stopped by adding of ADP-Glo reagent and the plate was incubated again at ambient temperature for another 40 min. The kinase detection reagent was added and the signal was collected via PerkinElmer Envision plate reader (PE, Boston, MA, USA).

[3] = tested on: HCT-116 cells; assay: CCK-8 cell viability assay, HCT-116; type: cell-based; conditions: Homo sapiens, mean (n = 3)
Experimental: as §1

`COc1ncc(-c2ccc3c(c2)sc2c(N4CCOCC4)ncnc23)cc1NS(=O)(=O)c1ccc(F)cc1F` [11a, 2,4-difluoro-N-(2-methoxy-5-(4-morpholinobenzo[4,5]thieno[3,2-d]pyrimidin-7-yl)pyridin-3-yl)benzenesulfonamide] was tested, and the IC50 ([1]; Table 1) was 0.96 ± 0.23 µM, the inhibition at 0.001 µM ([2]; Table 1) was 10% and the IC50 ([3]; Table 1, 72 h) was > 1 µM.
For `COc1ncc(-c2ccc3c(c2)sc2c(N4CCC(C)CC4)ncnc23)cc1NS(=O)(=O)c1ccc(F)cc1F` [11b, N-(2-methoxy-5-(4-(4-methylpiperidin-1-yl)benzo[4,5]thieno[3,2-d]pyrimidin-7-yl)pyridin-3-yl) 2,4-difluorobenzenesulfonamide], the IC50 ([1]; Table 1) was > 1 µM, the inhibition at 0.001 µM ([2]; Table 1) was 10% and the IC50 ([3]; Table 1, 72 h) was > 1 µM.
`COc1ncc(-c2ccc3c(c2)sc2c(NCCO)ncnc23)cc1NS(=O)(=O)c1ccc(F)cc1F` [11c, N-(5-(4-((2-hydroxyethyl)amino)benzo[4,5]thieno[3,2-d]pyrimidin-7-yl)-2-methoxypyridin-3-yl) -2,4-difluoro-benzenesulfonamide] showed an IC50 ([1]; Table 1) of 0.85 ± 0.37 µM, an inhibition at 0.001 µM ([2]; Table 1) of 29% and an IC50 ([3]; Table 1, 72 h) of 0.59 ± 0.18 µM.
Compound `COc1ncc(-c2ccc3c(c2)sc2c(NC4CC4)ncnc23)cc1NS(=O)(=O)c1ccc(F)cc1F` [11d, N-(5-(4-(cyclopropylamino)benzo[4,5]thieno[3,2-d]pyrimidin-7-yl)-2-methoxypyridin-3-yl)-2,4-difluorobenzenesulfonamide] has an IC50 ([1]; Table 1) of 0.51 ± 0.11 µM, an inhibition at 0.001 µM ([2]; Table 1) of 40% and an IC50 ([3]; Table 1, 72 h) of 0.19 ± 0.12 µM.
For `COCCCNc1ncnc2c1sc1cc(-c3cnc(OC)c(NS(=O)(=O)c4ccc(F)cc4F)c3)ccc12` [11e, N-(2-methoxy-5-(4-((3-methoxypropyl)amino)benzo[4,5]thieno[3,2-d]pyrimidin-7-yl)pyridin-3-yl)-2,4-difluorobenzenesulfonamide], the IC50 ([1]; Table 1) was > 1 µM, the inhibition at 0.001 µM ([2]; Table 1) was 35% and the IC50 ([3]; Table 1, 72 h) was > 1 µM.
`COc1ncc(-c2ccc3c(c2)sc2c(NCCN)ncnc23)cc1NS(=O)(=O)c1ccc(F)cc1F` [11f, N-(5-(4-((2-aminoethyl)amino)benzo[4,5]thieno[3,2-d]pyrimidin-7-yl)-2-methoxypyridin-3-yl)-2,4-difluorobenzenesulfonamide] was tested, and the IC50 ([1]; Table 1) was 0.69 ± 0.25 µM, the inhibition at 0.001 µM ([2]; Table 1) was 10% and the IC50 ([3]; Table 1, 72 h) was 0.77 ± 0.21 µM.
`COc1ncc(-c2ccc3c(c2)sc2c(NC(C)C)ncnc23)cc1NS(=O)(=O)c1ccc(F)cc1F` [11g, N-(5-(4-(isopropylamino)benzo[4,5]thieno[3,2-d]pyrimidin-7-yl)-2-methoxypyridin-3-yl)-2,4-difluorobenzenesulfonamide] was tested, and the IC50 ([1]; Table 1) was 0.53 ± 0.16 µM, the inhibition at 0.001 µM ([2]; Table 1) was 44% and the IC50 ([3]; Table 1, 72 h) was 0.22 ± 0.08 µM.
In the case of `COc1ncc(-c2ccc3c(c2)sc2c(NCCN(C)C)ncnc23)cc1NS(=O)(=O)c1ccc(F)cc1F` [11h, N-(5-(4-((2-(dimethylamino)ethyl)amino)benzo[4,5]thieno[3,2-d]pyrimidin-7-yl)-2-methoxypyridin-3-yl)-2,4-difluorobenzenesulfonamide], the IC50 ([1]; Table 1) is reported as 0.7 ± 0.21 µM, the inhibition at 0.001 µM ([2]; Table 1) is reported as 12% and the IC50 ([3]; Table 1, 72 h) is reported as 0.56 ± 0.1 µM.
With `CCCCNc1ncnc2c1sc1cc(-c3cnc(OC)c(NS(=O)(=O)c4ccc(F)cc4F)c3)ccc12` [11i, N-(5-(4-(butylamino)benzo[4,5]thieno[3,2-d]pyrimidin-7-yl)-2-methoxypyridin-3-yl)-2,4-difluorobenzenesulfonamide] the IC50 ([1]; Table 1) was > 1 µM, the inhibition at 0.001 µM ([2]; Table 1) was 15% and the IC50 ([3]; Table 1, 72 h) was > 1 µM.
`COc1ncc(-c2ccc3c(c2)sc2c(NCCCN4CCOCC4)ncnc23)cc1NS(=O)(=O)c1ccc(F)cc1F` [11j, N-(2-methoxy-5-(4-((3-morpholinopropyl)amino)benzo[4,5]thieno[3,2-d]pyrimidin-7-yl)pyridin-3-yl)-2,4-difluorobenzenesulfonamide] was tested, and the IC50 ([1]; Table 1) was > 1 µM, the inhibition at 0.001 µM ([2]; Table 1) was 10% and the IC50 ([3]; Table 1, 72 h) was > 1 µM.
Compound `COc1ncc(-c2ccc3c(c2)sc2c(OCCN(C)C)ncnc23)cc1NS(=O)(=O)c1ccc(F)cc1F` [11k, N-(5-(4-(2-(dimethylamino)ethoxy)benzo[4,5]thieno[3,2-d]pyrimidin-7-yl)-2-methoxypyridin-3-yl)-2,4-difluorobenzenesulfonamide] has an IC50 ([1]; Table 1) of 0.69 ± 0.11 µM, an inhibition at 0.001 µM ([2]; Table 1) of 13% and an IC50 ([3]; Table 1, 72 h) of 0.25 ± 0.08 µM.
In the case of `COCCOc1ncnc2c1sc1cc(-c3cnc(OC)c(NS(=O)(=O)c4ccc(F)cc4F)c3)ccc12` [11l, N-(2-methoxy-5-(4-(2-methoxyethoxy)benzo[4,5]thieno[3,2-d]pyrimidin-7-yl)pyridin-3-yl)-2,4-difluorobenzenesulfonamide], the IC50 ([1]; Table 1) is reported as 0.86 ± 0.12 µM, the inhibition at 0.001 µM ([2]; Table 1) is reported as 18% and the IC50 ([3]; Table 1, 72 h) is reported as > 1 µM.
For `COc1ncc(-c2cnc3ncnc(NC(C)C)c3c2)cc1NS(=O)(=O)c1ccc(F)cc1F` [17a, 2,4-difluoro-N-(5-(4-(isopropylamino)pyrido[2,3-d]pyrimidin-6-yl)-2-methoxypyridin-3-yl)benzenesulfonamide], the IC50 ([1]; Table 2) was 0.85 ± 0.3 µM, the inhibition at 0.001 µM ([2]; Table 2) was 39% and the IC50 ([3]; Table 2, 72 h) was 0.59 ± 0.15 µM.
Compound `COc1ncc(-c2cnc3ncnc(NC4CC4)c3c2)cc1NS(=O)(=O)c1ccc(F)cc1F` [17b, N-(5-(4-(cyclopropylamino)pyrido[2,3-d]pyrimidin-6-yl)-2-methoxypyridin-3-yl)-2,4-difluorobenzenesulfonamide] has an IC50 ([1]; Table 2) of 0.91 ± 0.39 µM, an inhibition at 0.001 µM ([2]; Table 2) of 21% and an IC50 ([3]; Table 2, 72 h) of 0.35 ± 0.17 µM.
With `CCCCNc1ncnc2ncc(-c3cnc(OC)c(NS(=O)(=O)c4ccc(F)cc4F)c3)cc12` [17c, N-(5-(4-(butylamino)pyrido[2,3-d]pyrimidin-6-yl)-2-methoxypyridin-3-yl)-2,4-difluorobenzenesulfonamide] the IC50 ([1]; Table 2) was > 1 µM, the inhibition at 0.001 µM ([2]; Table 2) was 21% and the IC50 ([3]; Table 2, 72 h) was 0.83 ± 0.25 µM.
`COc1ncc(-c2cnc3ncnc(NCCN(C)C)c3c2)cc1NS(=O)(=O)c1ccc(F)cc1F` [17d, N-(5-(4-((2-(dimethylamino)ethyl)amino)pyrido[2,3-d]pyrimidin-6-yl)-2-methoxypyridin-3-yl)-2,4-difluorobenzenesulfonamide] showed an IC50 ([1]; Table 2) of 0.73 ± 0.19 µM, an inhibition at 0.001 µM ([2]; Table 2) of 31% and an IC50 ([3]; Table 2, 72 h) of 0.52 ± 0.23 µM.
Compound `COc1ncc(-c2cnc3ncnc(N4CCOCC4)c3c2)cc1NS(=O)(=O)c1ccc(F)cc1F` [17e, N-(2-methoxy-5-(4-morpholinopyrido[2,3-d]pyrimidin-6-yl)pyridin-3-yl)2,4-difluorobenzenesulfonamide] has an IC50 ([1]; Table 2) of 0.92 ± 0.41 µM, an inhibition at 0.001 µM ([2]; Table 2) of 36% and an IC50 ([3]; Table 2, 72 h) of 0.64 ± 0.2 µM.
Compound `COc1ncc(-c2cnc3ncnc(N4CCC(C)CC4)c3c2)cc1NS(=O)(=O)c1ccc(F)cc1F` [17f, N-(2-methoxy-5-(4-(4-methylpiperidin-1-yl)pyrido[2,3-d]pyrimidin-6-yl)pyridin-3-yl)-2,4-difluorobenzenesulfonamide] has an IC50 ([1]; Table 2) of 0.86 ± 0.3 µM, an inhibition at 0.001 µM ([2]; Table 2) of 11% and an IC50 ([3]; Table 2, 72 h) of 0.51 ± 0.25 µM.
With `COc1ncc(-c2cnc3ncnc(NCCN4CCOCC4)c3c2)cc1NS(=O)(=O)c1ccc(F)cc1F` [17g, N-(2-methoxy-5-(4-((2-morpholinoethyl)amino)pyrido[2,3-d]pyrimidin-6-yl)pyridin-3-yl) -2,4-difluorobenzenesulfonamide] the IC50 ([1]; Table 2) was > 1 µM, the inhibition at 0.001 µM ([2]; Table 2) was 11% and the IC50 ([3]; Table 2, 72 h) was > 1 µM.
For `COc1ncc(-c2cnc3ncnc(NCCO)c3c2)cc1NS(=O)(=O)c1ccc(F)cc1F` [17h, N-(5-(4-((2-hydroxyethyl)amino)pyrido[2,3-d]pyrimidin-6-yl)-2-methoxypyridin-3-yl)-2,4-difluorobenzenesulfonamide], the IC50 ([1]; Table 2) was 0.93 ± 0.48 µM, the inhibition at 0.001 µM ([2]; Table 2) was 24% and the IC50 ([3]; Table 2, 72 h) was 0.69 ± 0.12 µM.
In the case of `COCCCNc1ncnc2ncc(-c3cnc(OC)c(NS(=O)(=O)c4ccc(F)cc4F)c3)cc12` [17i, N-(2-methoxy-5-(4-((3-methoxypropyl)amino)pyrido[2,3-d]pyrimidin-6-yl)pyridin-3-yl)-2,4-difluorobenzenesulfonamide], the IC50 ([1]; Table 2) is reported as > 1 µM and the IC50 ([3]; Table 2, 72 h) is reported as > 1 µM.
Work on `COCCNc1ncnc2ncc(-c3cnc(OC)c(NS(=O)(=O)c4ccc(F)cc4F)c3)cc12` [17j, N-(2-methoxy-5-(4-((2-methoxyethyl)amino)pyrido[2,3-d]pyrimidin-6-yl)pyridin-3-yl)-2,4-difluorobenzenesulfonamide] yielded an IC50 ([1]; Table 2) of 0.75 ± 0.25 µM, an inhibition at 0.001 µM ([2]; Table 2) of 24% and an IC50 ([3]; Table 2, 72 h) of 0.42 ± 0.12 µM.
`COc1ncc(-c2cnc3ncnc(NCC4CCCCC4)c3c2)cc1NS(=O)(=O)c1ccc(F)cc1F` [17k, N-(5-(4-((cyclohexylmethyl)amino)pyrido[2,3-d]pyrimidin-6-yl)-2-methoxypyridin-3-yl)-2,4-difluorobenzenesulfonamide] was tested, and the IC50 ([1]; Table 2) was > 1 µM, the inhibition at 0.001 µM ([2]; Table 2) was 22% and the IC50 ([3]; Table 2, 72 h) was > 1 µM.
In the case of `COc1ncc(-c2cnc3ncnc(NCC4CC4)c3c2)cc1NS(=O)(=O)c1ccc(F)cc1F` [17l, N-(5-(4-((cyclopropylmethyl)amino)pyrido[2,3-d]pyrimidin-6-yl)-2-methoxypyridin-3-yl)-2,4-difluorobenzenesulfonamide], the IC50 ([1]; Table 2) is reported as 0.63 ± 0.12 µM, the inhibition at 0.001 µM ([2]; Table 2) is reported as 25% and the IC50 ([3]; Table 2, 72 h) is reported as 0.47 ± 0.17 µM.
